Reference: patent publication US20090137565A1, “Method for treatment of movement disorders” (The Trustees of Columbia University in the City of New York, priority 2004, published 2009)
Entries after “also recorded” stand apart in the source; their conditions may differ.

Tests used:
[1] = Five-patient trial: tolerability of Xyrem; format: in vivo, human
Method: Side effects were defined as either minor or serious (leading to hospitalization) using good clinical practice standards (www.who.int/medicines/library/par/ggcp/GCPGuidePharmatrials), and patients were asked to report side effects at each visit. After initial examination and videotaping, patients were given 1 gm of sodium oxybate by mouth (2 ml of the standard 0.5 gm/ml solution dissolved in 60 ml of water). One hour later, the senior author repeated the examination and videotaping. […] After two weeks taking 2 gm twice daily, the procedure was repeated after a 3 gm office dose, and finally two weeks after receiving 3 gm twice daily, the procedure was repeated after a 4 gm office dose. The maximum dose allowed in the trial was 4 gm twice daily. Patients and the senior author determined at each visit whether or not to proceed to the next dose level, based principally on their ability to tolerate the most recent dose regimen. After deciding on a maximum tolerated dose, patients received a dose in the office 0.5 gm less and the examination was videotaped.

[2] = test system: medication-refractory, ethanol-responsive myoclonus (PHM, MD, PME); test: Twenty-patient open-label trial of sodium oxybate, blinded UMRS (myoclonus patients); format: in vivo, human; settings: for Stim-sens. myoclonus score: dose 0 score 5.8; for Functional performance score: dose 0 score 12.9; for Action myoclonus score: dose 0 score 45.3; for Myoclonus at rest score: dose 0 score 7.4
Excerpt: (§1) Twenty patients age 18 or older were recruited from a clinical practice at the Movement Disorders Division of Columbia University Medical Center. Eligible patients with medication-refractory, ethanol-responsive myoclonus (6 PHM, 3 MD, 2 PME) or ET (9 patients) (Table 1) were offered enrollment from February 2004 to March 2005. The medical center's institutional review board approved the protocol, and written informed consent was obtained from all participants. All had myoclonus or ET that improved (by self-report) with ingestion of ethanol. All patients were medication-refractory, defined as obtaining inadequate benefit from best medical treatment or being unable to tolerate treatment. The dose and timing of other medications were kept constant before and during the trial.
(§2) Twelve men and 8 women enrolled. Results from patients #6, and #s 1, 2, 7, 12, and 13 were reported previously. Frucht, S. J., et al. Mov Disord 20:745-51 (2005); Frucht, S. J., et al. Mov Disord 20:1330-7 (2005). Mean age/symptom duration was 43.9 yrs/12.3 yrs (myoclonus) and 71.2 yrs/26.7 yrs (ET). Patients with myoclonus were examined and videotaped at each visit using the Unified Myoclonus Rating Scale (UMRS), and patients with ET were examined and videotaped using the modified Washington Heights Inwood Genetic Essential Tremor Rating Scale (WHIGET; Appendix 1). Frucht, S. J., et al. Mov Disord 20:1330-7 (2005). After initial baseline examination and videotaping, patients took 1 gm of sodium oxybate by mouth (2 ml of the standard 0.5 gm/ml solution dissolved in 60 ml of water), and one hour later the videotaped examination was repeated. Patients were maintained on a dose of 1 gm T.I.D. (taken before meals) until their next office visit two weeks later, when the examination and videotaping were repeated one hour after receiving 1.5 gm of sodium oxybate. Subsequent visits and dose titrations at two-week intervals were repeated until the maximum dose was reached (3 gm T.I.D), patients were satisfied with the results of treatment, or until they developed side effects that they viewed as troublesome. Dosing for patients #1, 2, 6, 7, 12, and 13 was slightly different (1 gm BID, with dose increments of 2 gm to maximum dose of 4 gm BID), but office visits and videotaping protocol were otherwise identical.
(§3) The entire videotape segments and writing samples from each visit were copied and randomly ordered, and identifying features that might reveal trial order or drug dose were removed. A blinded movement disorder neurologist scored each videotape segment using the UMRS or the WHIGET. Sub-scores for each visit were calculated as described previously. Frucht, S. J., et al. Mov Disord 20:1330-7 (2005). Based on data from the first two ET cases, and assuming alpha=0.05, power=80%, and a 25% reduction in post-treatment tremor severity, we calculated that eight ET cases were required. A similar number of myoclonus patients would provide >80% power to detect a 25% reduction in the severity of post-treatment action myoclonus. Paired t tests were performed for scores pre- and post-treatment.

[3] = test system: medication-refractory, ethanol-responsive ET; test: Twenty-patient open-label trial of sodium oxybate, blinded WHIGET (ET patients); format: in vivo, human; settings: for Kinetic tremor score: dose 0 score 15.4; for Postural tremor score: dose 0 score 2.4
Excerpt: as §1, §2, §3

[4] = metabolized to carbon dioxide and water; cited from earlier work
[5] = patient 4, listed as Xyrem ®, monosodium salt

O=C([O-])CCCO.[Na+] [GHB, 4-hydroxybutanoic acid monosodium salt]
common side effects not requiring dose reduction ([1]; five patients): Transient headache and dizziness
Dose @ D-L-SE ([1]; patient 1): 3 gm
D-L-SE (dose-limiting side effect) ([1]; patient 1, disinhibition printed as mild, listed as Xyrem ®, monosodium salt): sedation and mild; also recorded: disinhibition
SER SE (serious side effect, leading to hospitalization) ([1]; patient 1, judged not likely related to study drug): asthma
Dose @ D-L-SE ([1]; patient 2): 3 gm
MILD SE ([1]; patient 2): Ø
SER SE ([1]; patient 2): Ø
D-L-SE (dose-limiting side effect) ([1]; patient 2, listed as Xyrem ®, monosodium salt): emotional lability
D-L-SE (dose-limiting side effect) ([1]; patient 3): slight sedation
Dose @ D-L-SE ([1]; patient 3): 4 gm
SER SE ([1]; patient 3): Ø
MILD SE ([1]; patient 3, listed as Xyrem ®, monosodium salt): HA (1 gm); also recorded: dizzy (1 gm)
Dose @ D-L-SE ([1]; patient 4): 2 gm
SER SE ([1]; patient 4): Ø
D-L-SE (dose-limiting side effect) [1, 5]: emotional lability
MILD SE [1, 5]: HA (1 gm); also recorded: dizzy (2 gm)
D-L-SE (dose-limiting side effect) ([1]; patient 5): slight sedation
Dose @ D-L-SE ([1]; patient 5): 2 gm
MILD SE ([1]; patient 5): Ø
SER SE ([1]; patient 5): Ø
Stim-sens. myoclonus score ([2]; 1 gm, p 0.01**): 3.2 (0.01)**
Functional performance score ([2]; 1 gm, p 0.044*): 11.0 (0.044)*
Action myoclonus score ([2]; 1 gm, p 0.047*): 33.4 (0.047)*
Functional performance score ([2]; 1.5 gm, p 0.007*): 9.6 (0.007)*
Stim-sens. myoclonus score ([2]; 1.5 gm, p 0.11): 3.2 (0.11)
Action myoclonus score ([2]; 1.5 gm, p 0.122): 26.8 (0.122)
Myoclonus at rest score ([2]; 1.5 gm, p 0.247): 1.2 (0.247)
Stim-sens. myoclonus score ([2]; 2 gm, p 0.001**): 2.8 (0.001)**
Action myoclonus score ([2]; 2 gm, p 0.005*): 30.9 (0.005)*
Myoclonus at rest score ([2]; 2 gm, p 0.047*): 3.6 (0.047)*
Functional performance score ([2]; 2 gm, p <0.001**): 6.0 (<0.001)**
Functional performance score ([2]; 2.5 gm, p 0.002**): 7.4 (0.002)**
Action myoclonus score ([2]; 2.5 gm, p 0.046*): 26.2 (0.046)*
Myoclonus at rest score ([2]; 2.5 gm, p 0.055): 0.6 (0.055)
Stim-sens. myoclonus score ([2]; 2.5 gm, p <0.001**): 1.4 (<0.001)**
Stim-sens. myoclonus score ([2]; 3.0 gm, p 0.02*): 1.0 (0.02)*
Functional performance score ([2]; 3.0 gm, p 0.059): 6.9 (0.059)
Action myoclonus score ([2]; 3.0 gm, p 0.064): 33.0 (0.064)
Myoclonus at rest score ([2]; 3.0 gm, p 0.129): 0.75 (0.129)
Myoclonus at rest score ([2]; individ. dose 1 gm, p 0.137 vs pre-treatment): 4.9 (0.137)
dose of maximal improvement ([2]; myoclonus measures): 2.5 gm
Myoclonus at rest ([2]; patient #3 (MD), after receiving 3 mg (so in the source)): disappeared
stimulus-sensitive myoclonus to sound and pinprick ([2]; patient #4 (PME), after 3 gm): only stimulus-sensitive myoclonus of the right hand remained
action myoclonus on finger-to-nose ([2]; patient #6 (PHM), standing unassisted now possible): significantly improved
Myoclonus at rest ([2]; patient #11 (PHM), after receiving 2.5 mg (so in the source)): disappeared
functional performance, using a soupspoon ([2]; patients #9 (PHM) and #5 (PME)): improved
Kinetic tremor score ([3]; 1 gm, p 0.011*): 11.5 (0.011)*
Postural tremor score ([3]; 1 gm, p 0.029*): 1.7 (0.029)*
Postural tremor score ([3]; 1.5 gm, p 0.001**): 1.1 (0.001)**
Kinetic tremor score ([3]; 1.5 gm, p 0.006**): 8.8 (0.006)**
Postural tremor score ([3]; 2 gm, p 0.006**): 1.4 (0.006)**
Kinetic tremor score ([3]; 2 gm, p 0.006**): 9.1 (0.006)**
dose of maximal improvement ([3]; ET, postural and kinetic tremor scores): 1.5 gm
time at which improvement in action tremor during pouring was evident ([3]; patient #15 (ET), after 1.5 gm): 45 min
time at which improvement in action tremor during pouring was obvious ([3]; patient #15 (ET), after 1.5 gm): 60 min
kinetic tremor during tasks (drawing, sipping water from spoon) ([3]; patient #17 (ET), FIG. 4): Improvement in kinetic tremor during tasks was evident
active metabolites [4]: has no active metabolites
